From patent US12344599B2, “Prodigiosin analogs and methods of use” (Institute For Cancer Research, priority 2016, dated 2025) come the findings set out here.

In one test the test system is CCD 841 Con. Put plainly: CellTiterGlo cell viability assay, CCD 841 Con normal colon cells. The conditions noted are these: Homo sapiens, non-transformed colorectal epithelial cells, p53 WT, 72 hours. It counts as cell-based. As for the experimental part: Cells were seeded in 96-well plates (6×10^3 cells/well). Cells were treated with different concentrations of compounds or dimethyl sulfoxide (DMSO) as a control for 72 hours. The cell viability was assessed by CellTiterGlo bioluminescent cell proliferation assay (Promega), following the manufacturer's protocol. Bioluminescence imaging was measured using the IVIS imager. Percentage of cell viability (mean±SEM) at each dose was calculated against the respective DMSO control. The IC50 values were determined from the sigmoidal dose-response curves using GraphPad Prism.

In a further test the test system is MDA-MB-231. In words: CellTiterGlo cell viability assay, MDA-MB-231. Format: cell-based. The conditions noted are these: Homo sapiens; MDA-MB-231, breast cancer, p53 R280K, 72 hours. As for the experimental part: (§1) • 1) Cell lines: HT29, SW480, DLD-1, HCT116, and p53-null HCT116 cells, H1975, MDA-MD-231, U251, FaDu, CAL-27, PANC-1, Aspc-1, and MRC5 were obtained from the ATCC and cultured as recommended. Cells were regularly authenticated by bioluminescence, growth, and morphologic observation. The cells were routinely examined for Mycoplasma and all cell lines underwent STR authentication. • 2) Western blotting: After treatment, protein lysates were collected for Western blot analysis. 15 μg of protein was used for SDS-PAGE. After primary and secondary antibody incubations, the signal was detected by chemiluminescent detection kit, imaged by Syngene (Imgen Technologies). […] The cell viability was assessed by CellTiterGlo bioluminescent cell proliferation assay (Promega), following the manufacturer's protocol. Bioluminescence imaging was measured using the IVIS imager. Percentage of cell viability (mean±SEM) at each dose was calculated against the respective DMSO control. The IC50 values were determined from the sigmoidal dose-response curves using GraphPad Prims4. • 4) Caspase activity assay: Cells were seeded in 96-well plate (1×10^4 cells/well). […] The caspase 3/7 activity was assessed by Caspase-Glo® 3/7 Assay kit (Promega), following the manufacturer's protocol. Bioluminescence imaging was measured using the IVIS imager. […]

The test system of the next test is caspase 3/7. In words: Caspase-Glo 3/7 caspase activity assay. It counts as cell-based, human. The conditions noted are these: mutant p53 and p53-null cancer cells, 24 hours. As for the experimental part:
as §1

The subject of test [1] is p53 target genes in HT29 cells. Put plainly: RNA-Seq gene profiling with IPA analysis. Format: cell-based, human. The conditions noted are these: HT29, 1 μM for 24 hours. How it is done: Having confirmed that PG3-Oc induces apoptosis in multiple p53-expressing mutant cancer cell lines, whether this small molecule restored p53 pathway signaling was investigated in HT29 cells after treatment with 1 μM PG3-Oc for 24 hours. For this purpose, gene profiling was performed by RNA-Seq and bioinformatics analysis, such as IPA (Ingenuity pathway analysis), GSEA (gene set enrichment analysis) and GO (gene ontology) (See details at Methods and Materials). […] Key p53 target gene CDKN1A (p21) that negatively regulate cell cycle and other p53 target genes that regulate apoptosis such as, TNFRSF10B (DR5), BBC3 (PUMA), BIRC5 (Survivin), TP53INP1 (Teap) were identified in canonical p53 pathway analysis. […] To verify that the behavior of regulation of p53 target genes by PG3-Oc is similar to p53 protein, based on published data (Fischer, Oncogene, 2017, 36(28), 3943-3956), genes directly repressed (FIG. 89) and activated (FIG. 90) by the p53 transcription factor were selected. […] This implicates that PG3-Oc is able to restore the p53 pathway.

`CCCCCCCCOC(=O)CCc1c(C)[nH]c(/C=C2\N=C(c3ccc[nH]3)C=C2OC)c1C` [PG3-Oc, Octyl (Z)-3-(5-((4′-methoxy-1H,5′H-[2,2′-bipyrrol]-5′-ylidene)methyl)-2,4-dimethyl-1H-pyrrol-3-yl)propanoate]: the IC50 with CCD 841 Con came to 375 nM; in the test on MDA-MB-231, 242 nM. Moreover, in the test on caspase 3/7, the “increase in caspase 3/7 activity as compared to untreated cells” value amounted to 2 fold. For the same molecule, the “PMAIP1 (Noxa) increase as compared to control” value in test [1] was 1.9 fold.

As usually defined, the IC50 is the midpoint of a concentration-inhibition curve. High values mean a need for much substance, low ones inhibition by little substance.
